The results in this text go back to patent publication US7592326B2, “Method for stimulating the immune, inflammatory or neuroprotective response” (priority 2004, dated 2009).

Experiment [1] relates to immature DCs (iDC) and mature DCs (mDC). The experiment is described as follows: Cytokine production by dendritic cells (sandwich ELISA of supernatants). Type of experiment: cell-based, human. The following applies: 24 h. Here is the method:
Analysis of supernatant cytokine content was performed both on treated (c-di-GMP) or untreated saline control (NaCl) immature DCs (iDC) and mature DCs (mDC). Culture supernatants were collected after 24 h treatment and IL-1β, IL-6, IL-10, IL-12, and TNF- α contents were measured using a sandwich ELISA according to the manufacturer's instructions.

The test system of another experiment is anti-ClfA IgG antibody. The experiment is described as follows: Adjuvant effect in vaccination with S. aureus ClfA (serum ELISA). The experiment is classed as in vivo, CD-1 female mice. How it is done: To evaluate the capacity of c-di-GMP to increase antibody production in the mouse (adaptive immune response), the cyclic dinucleotide was used as adjuvant for vaccination with S. aureus ClfA recombinant protein (a surface adhesion protein of S. aureus binding fibrinogen), as previously done for ClfA alone without adjuvant (Brouillette et al., 2002). Two groups of eight CD-1 female mice were vaccinated intramuscularly with 100 μl of saline containing 25 μg of ClfA. For one of the groups, the solution injected also contained 200 nmol of c-di-GMP. A volume of 50 ul was then injected into both quadriceps. This procedure was repeated two weeks after, for a second injection. Twelve days later, i.e. 26 days after the initial injections, blood samples were taken and incubated at 35° C. for an hour to allow coagulation, and then centrifuged at 13,000 g for 10 min at 4° C. Sera were harvested and kept at −20° C. until tested. The institutional ethics committee on animal experimentation of the Faculté des sciences of Université de Sherbrooke approved these experiments and were carried out following the guidelines of the Canadian Council on Animal Care.
Enzyme-linked immunosorbant assays (ELISA) were used to determine the presence of IgG antibodies against the ClfA antigen in the mouse serum, as previously described (Brouillette et al., 2002). Polystyrene Maxisorp 96-well plates (Nalge-Nunc International) were coated for 2 h with 50 μl of recombinant ClfA (domaine A) protein at a concentration of 10 μg/ml in carbonate/bicarbonate buffer at pH 9.6. Following saturation of the wells with a solution of powdered milk in PBS (5% w/v), overnight at 4° C., four-fold dilutions of sera (1/1000 to 1/64000) were added and incubated for 2 h at 35° C. and then overnight at 4° C. Biotinylated anti-mouse IgG (1/1000) was added and incubated for 2 h at 35° C. After 1 h of incubation with streptavidin-HRP (Amersham Pharmacia Biotech) diluted 1/500, 100 μl of Sure Blue TMB Peroxidase Substrate (KPL) was added. The enzyme reaction was stopped by the addition of 50 μl of 1N HCl after 6 min of incubation. Between each step, three washes with PBS-Tween 0.05% were carried out. The optical density (OD) was read on a plate reader (Bio-Tek Instruments) at 450 nm.
ELISA assays were carried out as for the total IgG assay but the secondary antibody was either mouse anti-IgG1-HRP or mouse anti-IgG2a-HRP (BD Pharmingen) and four-fold dilutions of sera form 1/250 to 1/16000 were assayed. Quantitation of mouse antibodies was achieved as for the total IgG assay but the development of coloration was allowed for 10 min. […] For the statistical analysis of ELISA results, the O.D. data for mice vaccinated with the c-di-GMP molecule as adjuvant were matched up to the corresponding data (isotype and dilution) where mice were injected with saline instead of c-di-GMP. One way analysis of variance (ANOVA) was used with the Bonferroni post-hoc test to account for multiple comparisons (Graphpad InStat software, version 3.06).

In another experiment the test system is p38 MAPK. The experiment is described as follows: Western blot signaling in human macrophages: p38 MAPK. Type of experiment: cell-based. Particulars: human M-CSF-induced monocyte-derived macrophages. Here is the method:
Preparation of macrophages was performed as previously described (Akagawa et al., 1996). Briefly, fully differentiated macrophages from human PBMC were isolated from leukapheresis preparations obtained by the Blood Bank, Clinical Center, National Institutes of Health, Bethesda, Md. The leukocyte-rich preparation was overlaid on Accu-prep in 50 ml tubes and the tubes were centrifuged at 800 × g for 20 min at room temperature. PBMC fractions were collected, washed once with PBS at room temperature and twice with complete medium at 4° C. and resuspended in the same medium. Monocytes were further purified by using iso-osmotic Percoll gradient (Amersham Biosciences). At this stage, the purity of monocytes was higher than 90%. One and half million cells were placed on a 12-well plate in 1.5 ml RPMI1640 containing 50 ng/ml human M-CSF. On day 4, 1 ml of the medium was replaced with 1 ml of fresh medium containing 50 ng human M-CSF. On day 7, non-adherent cells were washed out and adherent cells were used as macrophages.
Western blot analysis of macrophages was performed as previously described (Matsuyama et al., 2003). Briefly, prepared macrophages were starved in RPMI 1640 without FCS for 10 h. […] Proteins were analyzed on 12% polyacrylamide gels by SDS-PAGE and transferred electrophoretically to nitrocellulose membranes at 150 mA for 1 h in a semi-dry system. […]

In experiment [2] the test system is PR8 followed by D39 or NCH57. The experiment is described as follows: Secondary bacterial pneumonia following influenza infection in mice (proposed). Type of experiment: in vivo. Particulars: 200 nmol/animal 24- and 48 hours prior to bacterial challenge. How it is done:
To show the effect of c-di-GMP secondary bacterial pneumonia following influenza infection, groups of 6 mice are infected with 100 TCID50 of PR8 and challenged 7 days later with either 1000 CFU of D39, or 1×10^7 CFU of NCH57 and followed twice daily for weight loss, development of secondary bacterial infections by bioluminescent imaging, and mortality. One group of mice is treated with c-di-GMP 24- and 48 hours (e.g., orally, intransal, i.p, s.q. i.m.) prior to bacterial challenge with 200 nmol/animal.

[3] abbreviates: serum dilution of 1/1000, FIG. 7B.

For the compound `Nc1nc(=O)c2ncn([C@@H]3OC4COP(=O)(O)O[C@H]5[C@@H](O)[C@H](n6cnc7c(=O)nc(N)[nH]c76)O[C@@H]5COP(=O)(O)OC4C3O)c2[nH]1` (some centres unmarked) [c-di-GMP, Bis(3′→5′)-cyclic diguanylic acid], the IL-10 expression result in experiment [1] (DCs) is on record as “no major effect”. Further, the “production of TNF-α” value in experiment [1] (iDCs, 5 μM, FIG. 3A) is recorded as “dramatic increase”. In addition, the IL-12 secretion entry in experiment [1] (immature DCs) is recorded as “undetectable”. The IL-12 production entry in experiment [1] (mDCs (LPS-treated), 50 μM) is recorded as “dramatic increase”. Moreover, in experiment [1] (mDCs (LPS-treated), 100 μM, FIG. 3B), the IL-6 production result is on record as “increase”. In addition, the IL-1β production result in experiment [1] (mDCs (LPS-treated), FIG. 3B) is “major increase”. For the same compound, in the experiment with anti-ClfA IgG antibody (serum dilution 1/16000, c-di-GMP treated group), the “ELISA optical density, IgG1 and IgG2a isotypes” value is “around 0.5”. Moreover, the “ELISA optical density, total IgG” value in the experiment on anti-ClfA IgG antibody (serum dilution 1/64000, c-di-GMP treated group) is recorded as “around 0.5”. For the same compound, in the experiment with anti-ClfA IgG antibody (setting [3]), the “increase of IgG1 (optical density ratio c-di-GMP/saline)” value is on record as 3.6 times, the “increase of IgG2a (optical density ratio c-di-GMP/saline)” value was determined as 208.9 times and the “increase of total IgG (optical density ratio c-di-GMP/saline)” value was 7.7 times. In addition, the “anti-ClfA IgG antibody titers compared with ClfA alone” value with anti-ClfA IgG antibody (two i.m. injections, 200 nmol c-di-GMP + 25 μg ClfA, serum day 26, P<0.001) is on record as “significantly higher”. Besides, the “phosphorylation of p38 MAPK” value with p38 MAPK is “no phosphorylation”. Moreover, the survival entry in experiment [2] was “greater survival”.
